Data set [1] has as its system anesthetized rats. Description: Heart rate increase reaction induced by frequent electrical stimulation of hindlimb afferent nerves, i.v. administration. The data set is classed as in vivo, rat. As to conditions: for suppressive effect on heart rate increase: anesthetized rats, i.v., electrical stimulation of lower extremity nerves. From the text:
Among (1) “heart rate increase reaction induced by frequent electrical stimulation of hindlimb afferent nerves” employed herein is not induced by weak stimulation intensity (0.2 V) that excites only thick medullated A-fibers, but induced by stimulation intensity (1 V) that is the same or higher than the excitation threshold of thin medullated A-fibers. When the stimulation intensity is further increased (10 V) so as to cause excitation of nonmedullated C fibers, the amplification of the heart rate increase reaction is increased to reach the maximum level (Sato et al, J Auton Nery Syst 4: 231, 1981; Uchida et al, Neurosci Left 269: 161, 1999). Noxious information is transmitted by A-fibers and C fibers. Therefore, such heart rate increase reaction induced by excitation of somatic afferent A-fibers and C fibers can be an indicator for evaluation of analgesic effects.
Blood pressure waveform was collected using a pulse rate tachometer (AT601-O, Nihon Kohden) and the heart rate was recorded continuously.

Data set [2] is described as follows: Arterial blood pressure after i.v. cPA administration. The data set is classed as in vivo, rat. From the text:
The right femoral artery was cannulated. Arterial blood pressure was continuously recorded from the intra-arterial cannula using a pressure transducer (TP-400T, Nihon Kohden, Tokyo).

In data set [3] the test system is anesthetized rats.
For data set [4], the system named is DNA polymerase α of eukaryotic cells. As to conditions: cited from earlier work.
The subject of data set [5] is anesthetized cats. To be noted: cited from earlier work.
Where [6] appears, read: 50 μg/Kg i.v., 10 to 15 minutes after administration.
The mark [7] stands for this setting: 100 μg/Kg i.v., 10 to 15 minutes after administration.
[8] abbreviates: 200 μg/Kg i.v., 10 to 15 minutes after administration.

Molecules are shown by their SMILES. “Also recorded” adds a separate entry of the source. Read-outs that look alike come from different tables or passages of the source. Bounds are passed on as bounds.

Here are results for six compounds from patent US8017597B2, “Analgesic agent comprising cyclic phosphatidic acid derivative” (Ochanomizu University, priority 2006, dated 2011).

Sequence of DNA polymerase α of eukaryotic cells (P09884 whole entry): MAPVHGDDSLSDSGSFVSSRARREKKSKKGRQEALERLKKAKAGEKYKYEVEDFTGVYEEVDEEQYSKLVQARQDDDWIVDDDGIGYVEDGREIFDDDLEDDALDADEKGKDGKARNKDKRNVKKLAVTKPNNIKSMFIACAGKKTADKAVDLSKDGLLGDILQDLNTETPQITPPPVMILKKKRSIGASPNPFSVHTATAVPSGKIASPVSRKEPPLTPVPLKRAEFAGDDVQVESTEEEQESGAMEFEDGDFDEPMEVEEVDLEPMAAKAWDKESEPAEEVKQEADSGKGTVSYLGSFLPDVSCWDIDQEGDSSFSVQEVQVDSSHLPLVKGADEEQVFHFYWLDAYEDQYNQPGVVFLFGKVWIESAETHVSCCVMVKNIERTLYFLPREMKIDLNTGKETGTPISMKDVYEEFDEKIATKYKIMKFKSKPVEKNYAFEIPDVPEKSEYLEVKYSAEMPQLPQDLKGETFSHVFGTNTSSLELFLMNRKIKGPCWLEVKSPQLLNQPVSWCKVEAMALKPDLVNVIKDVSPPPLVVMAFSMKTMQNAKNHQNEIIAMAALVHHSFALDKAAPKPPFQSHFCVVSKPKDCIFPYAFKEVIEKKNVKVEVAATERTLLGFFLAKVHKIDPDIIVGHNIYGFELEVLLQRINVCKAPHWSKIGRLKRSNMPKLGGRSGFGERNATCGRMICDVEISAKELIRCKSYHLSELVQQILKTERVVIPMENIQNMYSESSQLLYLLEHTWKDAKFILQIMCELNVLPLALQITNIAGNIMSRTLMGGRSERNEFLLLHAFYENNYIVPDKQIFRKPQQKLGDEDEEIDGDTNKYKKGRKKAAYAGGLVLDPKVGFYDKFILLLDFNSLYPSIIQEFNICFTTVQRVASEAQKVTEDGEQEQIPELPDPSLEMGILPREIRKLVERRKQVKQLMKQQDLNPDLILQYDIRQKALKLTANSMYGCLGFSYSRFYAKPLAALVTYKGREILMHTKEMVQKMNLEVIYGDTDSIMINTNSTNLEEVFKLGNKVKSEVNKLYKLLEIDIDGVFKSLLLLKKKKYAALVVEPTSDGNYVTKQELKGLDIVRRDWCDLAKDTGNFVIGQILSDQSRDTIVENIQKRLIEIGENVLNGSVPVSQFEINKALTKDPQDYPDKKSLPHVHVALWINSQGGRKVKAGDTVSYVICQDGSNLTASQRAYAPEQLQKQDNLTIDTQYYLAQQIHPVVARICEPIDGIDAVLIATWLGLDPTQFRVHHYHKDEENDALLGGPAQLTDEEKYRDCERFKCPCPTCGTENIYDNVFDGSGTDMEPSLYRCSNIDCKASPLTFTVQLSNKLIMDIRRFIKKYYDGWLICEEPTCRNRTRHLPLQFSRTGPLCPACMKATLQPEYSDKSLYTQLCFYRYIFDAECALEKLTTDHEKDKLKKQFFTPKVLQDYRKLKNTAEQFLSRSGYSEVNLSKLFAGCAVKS
Sequence of DNA polymerase α of eukaryotic cells (Q14181 whole entry partner): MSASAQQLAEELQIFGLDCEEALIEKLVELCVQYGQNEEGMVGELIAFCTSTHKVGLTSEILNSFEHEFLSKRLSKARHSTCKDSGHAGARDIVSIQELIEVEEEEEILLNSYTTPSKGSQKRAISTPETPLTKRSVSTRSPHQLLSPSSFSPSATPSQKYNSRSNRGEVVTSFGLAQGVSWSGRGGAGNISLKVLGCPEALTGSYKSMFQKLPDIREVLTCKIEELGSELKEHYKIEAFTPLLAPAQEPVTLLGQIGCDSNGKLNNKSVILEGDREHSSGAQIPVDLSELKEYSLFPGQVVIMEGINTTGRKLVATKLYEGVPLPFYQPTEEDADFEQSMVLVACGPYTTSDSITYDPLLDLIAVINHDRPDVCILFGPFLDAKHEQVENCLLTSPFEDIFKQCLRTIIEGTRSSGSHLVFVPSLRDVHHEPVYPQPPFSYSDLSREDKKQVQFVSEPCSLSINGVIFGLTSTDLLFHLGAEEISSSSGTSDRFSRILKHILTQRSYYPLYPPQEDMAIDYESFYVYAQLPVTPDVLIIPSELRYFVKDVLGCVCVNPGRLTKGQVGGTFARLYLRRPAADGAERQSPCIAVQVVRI
Sequence of DNA polymerase α of eukaryotic cells (P49642 whole entry partner): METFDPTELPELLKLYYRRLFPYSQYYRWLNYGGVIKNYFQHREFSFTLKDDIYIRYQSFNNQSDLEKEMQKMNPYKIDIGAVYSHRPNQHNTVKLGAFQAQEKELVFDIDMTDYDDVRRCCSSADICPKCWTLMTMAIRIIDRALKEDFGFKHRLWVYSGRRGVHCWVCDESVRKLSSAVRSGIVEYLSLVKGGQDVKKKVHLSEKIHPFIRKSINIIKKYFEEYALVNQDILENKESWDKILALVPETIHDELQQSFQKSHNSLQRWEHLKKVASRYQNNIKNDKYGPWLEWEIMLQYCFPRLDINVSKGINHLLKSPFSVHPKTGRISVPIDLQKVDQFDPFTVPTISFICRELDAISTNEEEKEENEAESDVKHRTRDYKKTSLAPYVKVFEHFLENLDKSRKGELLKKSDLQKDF
Sequence of DNA polymerase α of eukaryotic cells (P49643 whole entry partner): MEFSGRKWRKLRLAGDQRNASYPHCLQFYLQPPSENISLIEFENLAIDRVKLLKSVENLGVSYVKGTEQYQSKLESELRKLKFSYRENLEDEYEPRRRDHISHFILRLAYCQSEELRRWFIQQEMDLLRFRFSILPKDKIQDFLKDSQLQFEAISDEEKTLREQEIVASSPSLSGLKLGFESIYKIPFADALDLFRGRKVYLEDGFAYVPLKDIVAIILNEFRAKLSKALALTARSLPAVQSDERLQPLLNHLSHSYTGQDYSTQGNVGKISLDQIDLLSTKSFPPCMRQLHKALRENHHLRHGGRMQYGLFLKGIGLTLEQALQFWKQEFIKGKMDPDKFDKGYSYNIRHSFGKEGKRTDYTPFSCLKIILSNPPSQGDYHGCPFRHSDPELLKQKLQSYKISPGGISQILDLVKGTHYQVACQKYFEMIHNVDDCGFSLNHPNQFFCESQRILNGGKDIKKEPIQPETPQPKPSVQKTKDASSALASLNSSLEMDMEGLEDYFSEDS

With `CCCCCCCC/C=C\CCCCCCCC(=O)OCC1COP(=O)(O)O1` (stereo not shown) [Ole-cPA, 1-oleoyl cyclic phosphatidic acid], in data set [1], the “suppressive effect on heart rate increase” value is “significantly suppressed; also recorded: significantly observed”. Besides, the “heart rate increase compared with control” value in data set [1] (dose 5 mg/Kg body weight i.v.) is reported as “a half of or lower than that of the control”. Moreover, the “suppressive effect on heart rate increase after 20 minutes” value in data set [1] (dose 5 mg/Kg i.v., after 20 minutes) was “significant suppressive effect”. Further, in data set [1] (dose higher than 1 mg/Kg body weight i.v.), the “duration of the suppressive effect on heart rate increase” value was not below 20 min. Moreover, in data set [2] (anesthetized rats, i.v.), the “effects of administration on blood pressure” value was “not observed”. Further, in data set [2] (dose 2 mg/Kg body weight or less i.v.), the blood pressure is approximately 90 mmHg. The “decrease in depolarization level of C reflex” value in data set [3] (2 mg/Kg i.v.) was “approximately 50%”. In addition, the “changes in discharge level of Aδ reflex” value in data set [3] (after administration, compared with C reflex) is recorded as “inconsistent”. In addition, the “change in discharge/depolarization level of cardiac nerves, particularly C reflex” value (“change in discharge/depolarization level” for short) in data set [3] (anesthetized rats, i.v.) is “decreased”. Moreover, the “decrease in discharge level of C reflex” value in data set [3] (any concentration, 10 to 15 minutes after administration) is listed as “approximately 1 mV”; in data set [3] (any concentration, 10 to 15 minutes after administration, relative to before administration), “up to 40%”; in data set [3] (dose 2 mg/Kg, 30 minutes after administration, compared with before administration), “approximately 20%”.

With `CCCCCC[C@@H]1C[C@@H]1CCCCCCCC(=O)OC[C@@H]1COP(=O)(O)O1` [PHYLPA], the “effect on activity of DNA polymerase α” value in data set [4] is “suppresses”.

As for `CCCCCC/C=C\CCCCCCCC(=O)OCC1COP(=O)(O)C1` (stereo not shown) [Pal-2 ccPA, palmitoleoyl 2 carba cPA], the “decrease in depolarization level of C reflex” value was not below 30% in data set [3] (setting [6]); “approximately 60%” in data set [3] (setting [7]); “approximately 70%” in data set [3] (setting [8]); “approximately 80%” in data set [3] (500 μg/Kg i.v., 10 to 15 minutes after administration). The “change in discharge/depolarization level” value in data set [3] (anesthetized rats, i.v.) was “significant decrease”.

As to `CCCCCC/C=C\CCCCCCCC(=O)OCC1CCP(=O)(O)O1` (stereo not shown) [Pal-3 ccPA, palmitoleoyl 3 carba cPA], the entries for the “decrease in depolarization level of C reflex” value in data set [3] (setting [6]), in data set [3] (setting [7]) and in data set [3] (setting [8]) were “approximately 30%”, “approximately 50%” and “approximately 60%”, respectively. In addition, the “change in discharge/depolarization level” value in data set [3] (anesthetized rats, i.v.) was “significant decrease”. Besides, the “degree of decrease in C reflex depolarization compared with 2 carba derivatives” value in data set [3] (i.v., anesthetized rats) was “somewhat lower”.

For `CCCCCCCCCCCCCCCC(=O)OCC1COP(=O)(O)O1` (stereo not shown) [Pal-cPA], the “suppressive effect on heart rate increase” value in data set [1] is “no consistent tendency could be confirmed; also recorded: not significant”. For the same compound, the blood pressure in data set [2] (after dose of 2 mg/Kg body weight i.v.) is given as 130 mmHg; in data set [2] (dose 300 μg/Kg body weight i.v., brief increase), “around 100 mmHg”; in data set [2] (dose 2 mg/Kg i.v., thereafter up to 30 minutes after administration) it was “around 130 mmHg”.

As for `CN1CC[C@]23c4c5ccc(O)c4O[C@H]2[C@@H](O)C=C[C@H]3[C@H]1C5` [morphine], the “effect on C-reflex potential” value in data set [5] is given as “selectively suppresses C-reflex potential alone”.
